In patent US6643591B1, “Use of computational and experimental data to model organic compound reactivity in cytochrome P450 mediated reactions and to optimize the design of pharmaceuticals” (University of Pittsburgh, priority 1998, dated 2003):
Like-named read-outs stand apart in the source and are kept apart here. Marks after values point to notes of the source that are not given here.

Columns and labels:
[1] = test system: CYP; test: Activation energy differences from experimental regioselectivity of substrates in rapid equilibrium; type: in vitro ADME; parameters: unit not given here; settings: difference in activation energy calculated by the experimental regioselectivity
Source text: Five substrates shown to undergo rapid equilibrium between positions of metabolism have been used to prepare data for regression and then correlation with Eq. 1. The differences in activation energy calculated by the experimental regioselectivity of the substrates, along with the differences in AM1 activation enthalpies, are given in Table 1. Regression of the experimental data gives a slope correction for AM1 activation energies of 0.75±0.20.

[2] = target: T1, CYP2B1 (Rattus norvegicus, UniProt P00176)
T1 sequence (P00176 1-491): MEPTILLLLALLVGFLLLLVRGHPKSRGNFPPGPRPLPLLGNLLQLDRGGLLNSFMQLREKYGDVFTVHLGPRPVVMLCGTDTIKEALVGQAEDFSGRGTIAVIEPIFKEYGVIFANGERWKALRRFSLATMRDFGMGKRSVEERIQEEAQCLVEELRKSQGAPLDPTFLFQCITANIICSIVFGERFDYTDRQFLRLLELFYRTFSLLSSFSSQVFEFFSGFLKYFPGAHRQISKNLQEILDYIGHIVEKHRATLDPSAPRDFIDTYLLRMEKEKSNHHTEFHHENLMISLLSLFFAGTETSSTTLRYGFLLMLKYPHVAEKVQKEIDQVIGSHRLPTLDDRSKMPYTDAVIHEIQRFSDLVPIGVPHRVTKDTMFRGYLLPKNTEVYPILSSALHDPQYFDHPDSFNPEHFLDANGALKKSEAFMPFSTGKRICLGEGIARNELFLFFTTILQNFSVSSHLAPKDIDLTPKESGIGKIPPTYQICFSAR

[3] = target: T2, CYP2B6 (Homo sapiens, UniProt P20813); settings: human, pH 7.4
T2 sequence (P20813 1-491): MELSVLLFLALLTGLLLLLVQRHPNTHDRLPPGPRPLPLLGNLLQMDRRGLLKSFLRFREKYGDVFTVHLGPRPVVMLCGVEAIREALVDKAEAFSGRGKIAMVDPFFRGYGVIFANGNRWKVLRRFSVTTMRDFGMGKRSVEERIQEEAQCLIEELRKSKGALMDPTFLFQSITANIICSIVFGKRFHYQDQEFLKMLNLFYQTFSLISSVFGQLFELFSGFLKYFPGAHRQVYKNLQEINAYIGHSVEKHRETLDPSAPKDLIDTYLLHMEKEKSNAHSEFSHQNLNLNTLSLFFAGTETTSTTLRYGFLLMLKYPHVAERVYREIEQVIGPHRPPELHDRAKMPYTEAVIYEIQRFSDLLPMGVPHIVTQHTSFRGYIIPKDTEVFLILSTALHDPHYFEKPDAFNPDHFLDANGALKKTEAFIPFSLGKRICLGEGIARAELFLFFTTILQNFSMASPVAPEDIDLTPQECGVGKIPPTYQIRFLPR

[4] = target: T3, CYP2C8 (Homo sapiens, UniProt P10632); settings: pH 7.4
T3 sequence (P10632 1-490): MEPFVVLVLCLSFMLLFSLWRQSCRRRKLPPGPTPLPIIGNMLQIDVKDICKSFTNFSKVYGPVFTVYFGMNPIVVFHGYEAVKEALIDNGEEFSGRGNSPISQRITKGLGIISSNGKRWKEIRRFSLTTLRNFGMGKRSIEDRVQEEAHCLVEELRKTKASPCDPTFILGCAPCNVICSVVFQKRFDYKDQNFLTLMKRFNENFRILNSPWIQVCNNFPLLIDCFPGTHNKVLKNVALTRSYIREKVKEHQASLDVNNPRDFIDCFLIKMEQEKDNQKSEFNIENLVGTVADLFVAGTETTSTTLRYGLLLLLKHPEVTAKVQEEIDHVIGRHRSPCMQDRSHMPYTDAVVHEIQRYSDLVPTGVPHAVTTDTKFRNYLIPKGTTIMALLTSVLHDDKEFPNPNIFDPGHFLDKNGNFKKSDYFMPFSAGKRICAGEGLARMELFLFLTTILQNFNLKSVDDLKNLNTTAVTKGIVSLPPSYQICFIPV

[5] = target: CYP2E1 (Homo sapiens, UniProt P05181); settings: pH 7.4
[6] = test system: multiple CYP isoforms; settings: for P, calculated primary KIE, average / S, calculated secondary KIE, average: Avg over isoforms with unmasked KIE; for INTER KIE, average: Avg over isoforms with unmasked KIE (p-MA: 1A2, 2B1, 2B6, 2E1; o-MA: six isoforms; α-ClMpX: 1A2, 2B1, 2B6); for Intramolecular KIE, average: Avg over the CYP isoforms tested; for Intramolecular KIE, range of values: range over the CYP isoforms tested

Chain of CYP2E1 (P05181 whole entry, canonical isoform): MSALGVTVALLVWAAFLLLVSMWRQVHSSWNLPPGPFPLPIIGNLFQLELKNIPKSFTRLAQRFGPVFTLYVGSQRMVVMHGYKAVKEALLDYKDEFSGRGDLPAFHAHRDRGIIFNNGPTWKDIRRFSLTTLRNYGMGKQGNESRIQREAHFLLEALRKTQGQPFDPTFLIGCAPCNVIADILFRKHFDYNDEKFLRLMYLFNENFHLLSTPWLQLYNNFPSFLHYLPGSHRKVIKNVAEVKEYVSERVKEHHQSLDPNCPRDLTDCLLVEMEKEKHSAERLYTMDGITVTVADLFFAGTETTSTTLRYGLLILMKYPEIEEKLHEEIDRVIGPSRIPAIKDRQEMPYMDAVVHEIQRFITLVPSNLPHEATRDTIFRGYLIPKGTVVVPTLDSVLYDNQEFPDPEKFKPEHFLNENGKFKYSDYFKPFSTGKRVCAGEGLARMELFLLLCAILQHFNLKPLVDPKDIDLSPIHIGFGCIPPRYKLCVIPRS

SMILES: COc1ccccc1C [o-Methylanisole, o-methylanisole]
- ΔΔG (experimental) [1]: 0.3
- INTER KIE (combined intermolecular competitive KIE) [2]: 9.3
- Intramolecular KIE (kH/kD) [2]: 5.78
- P, calculated primary KIE [2]: 6.8
- S, calculated secondary KIE [2]: 1.2
- Metabolite profile, Phenol ([2]; rat, pH 7.4): 63 Mol-%
- Metabolite profile, o-CR ([2]; rat, pH 7.4): 18 Mol-%
- Metabolite profile, o-MBA ([2]; rat, pH 7.4): 19 Mol-%
- Ratio of ring hydroxylation para to the methoxy group to ODAlk ([2]; rat, pH 7.4): 3.5
- nmol 4M3MPh ([2]; rat, pH 7.4): 9.1* nmol
- nmol TP ([2]; rat, pH 7.4): 13* nmol
- nmol o-CR ([2]; rat, pH 7.4): 2.3* nmol
- nmol o-MBA ([2]; rat, pH 7.4): 2.37* nmol
- INTER KIE (combined intermolecular competitive KIE) [3]: 10.43
- Intramolecular KIE (kH/kD) [3]: 6.78
- Metabolite profile, o-CR [3]: 56 Mol-%
- Metabolite profile, o-MBA [3]: 29 Mol-%
- P, calculated primary KIE [3]: 7.8
- Ratio ODAlk:Arom [3]: 0.3
- S, calculated secondary KIE [3]: 1.15
- nmol 4M3MPh [3]: 2.8 nmol
- nmol TP [3]: 19 nmol
- nmol o-CR [3]: 10.7* nmol
- nmol o-MBA [3]: 5.5* nmol
- Metabolite profile, Phenol [4]: 33 Mol-%
- Metabolite profile, o-CR [4]: 36 Mol-%
- Metabolite profile, o-MBA [4]: 31 Mol-%
- nmol 4M3MPh [4]: 0.2 nmol
- nmol TP [4]: 0.6 nmol
- nmol o-CR [4]: 0.2 nmol
- nmol o-MBA [4]: 0.21 nmol
- INTER KIE (combined intermolecular competitive KIE) [5]: 10
- Intramolecular KIE (kH/kD) [5]: 5.95
- Metabolite profile, Phenol [5]: 57 Mol-%
- Metabolite profile, o-CR [5]: 16 Mol-%
- Metabolite profile, o-MBA [5]: 27 Mol-%
- P, calculated primary KIE [5]: 7.1
- Ratio of ring hydroxylation para to the methoxy group to ODAlk [5]: 3.5
- S, calculated secondary KIE [5]: 1.19
- nmol 4M3MPh [5]: 13* nmol
- nmol TP [5]: 23* nmol
- nmol o-CR [5]: 3.8* nmol
- nmol o-MBA [5]: 6.1* nmol
- ΔΔG^‡ corresponding to regioselectivity BzH:ODAlk [6]: 0.1-0.65
- Ring hydroxylation products, share of total products ([6]; 20 min, […], pH 7.4): 30-60%
- P, calculated primary KIE, average [6]: 8
- S, calculated secondary KIE, average [6]: 1.2
- INTER KIE, average [6]: 11
- INTER KIE, average ([6]; listed as o-MA): 11±3
- P, calculated primary KIE, average ([6]; listed as o-MA): 8±3
- S, calculated secondary KIE, average ([6]; listed as o-MA): 1.2±0.4
- Intramolecular KIE, average [6]: 6.2
- Intramolecular KIE, average ([6]; listed as o-MA): 6.2±0.6
- Intramolecular KIE, range of values [6]: 5.7-6.9
- P (primary KIE), range ([6]; range over the isoforms): 6.7-8.9
- S (secondary KIE), range ([6]; range over the isoforms): 1.15-1.29
- Regioselectivity BzH:ODAlk, range ([6]; range over the isoforms, listed as o-MA): 1.2-2.9

SMILES: COc1ccc(C)cc1 [p-Methylanisole, p-methylanisole]
- ΔΔG (experimental) [1]: 1.1
- INTER KIE (combined intermolecular competitive KIE) [2]: 5.8
- Intramolecular KIE (kH/kD) [2]: 3.69
- P, calculated primary KIE [2]: 4.3
- S, calculated secondary KIE [2]: 1.16
- nmol p-CR ([2]; rat, pH 7.4): 2.0* nmol
- nmol p-MBA ([2]; rat, pH 7.4): 4.2* nmol
- nmol total TP ([2]; rat, pH 7.4): 6.2* nmol
- INTER KIE (combined intermolecular competitive KIE) [3]: 6.8
- Intramolecular KIE (kH/kD) [3]: 3.74
- P, calculated primary KIE [3]: 4.6
- S, calculated secondary KIE [3]: 1.22
- nmol p-CR [3]: 2.10* nmol
- nmol p-MBA [3]: 7.0* nmol
- nmol total TP [3]: 9.1 nmol
- nmol p-CR [4]: 0.20 nmol
- nmol p-MBA [4]: 1.89 nmol
- nmol total TP [4]: 2.08 nmol
- INTER KIE (combined intermolecular competitive KIE) [5]: 6.6
- Intermolecular Competitive ^D(V/K) [5]: 2.57 ± 0.02
- Intermolecular Noncompetitive ^D(V/K) [5]: 2.60 ± 0.01
- Intermolecular Noncompetitive ^DV [5]: 2.28 ± 0.10
- P, calculated primary KIE [5]: 4.9
- S, calculated secondary KIE [5]: 1.16
- nmol p-CR [5]: 5.6* nmol
- nmol p-MBA [5]: 23.8* nmol
- nmol total TP [5]: 29.4 nmol
- P, calculated primary KIE, average [6]: 5
- S, calculated secondary KIE, average [6]: 1.2
- INTER KIE, average [6]: 6
- INTER KIE, average ([6]; listed as p-MA): 6±1
- P, calculated primary KIE, average ([6]; listed as p-MA): 5±1
- S, calculated secondary KIE, average ([6]; listed as p-MA): 1.15±0.22
- Intramolecular KIE, average [6]: 4.4
- Intramolecular KIE, average ([6]; listed as p-MA): 4.4±0.3
- Intramolecular KIE, range of values [6]: 3.69-6.08
- Combined intermolecular competitive KIE, range ([6]; range over the isoforms): 5.9-6.8
- P (primary KIE), range ([6]; range over the isoforms): 4.3-5.0
- S (secondary KIE), range ([6]; range over the isoforms): 1.08-1.22
